Measurements: patent US5049637A, “1,2,3,4,10,14b-hexahydrodibenzo[c,f]pyrazino-[1,2-a]azepino derivatives and 10-aza, 10-oxa and 10-thia analogues” (Monash University, priority 1987, dated 1991)

What was measured:
[1] = test system: isolated rat uterus; assay: Isolated rat uterus in vitro
[2] = test system: bronchoconstrictor effects of histamine and 5-hydroxytryptamine; assay: Histamine and 5-hydroxytryptamine induced bronchoconstriction in guinea pigs; format: in vivo, guinea pig; conditions: Cavia porcellus, intravenous, read-out: Intravenous dose reducing histamine and 5-hydroxytryptamine bronchoconstriction
Protocol: (§1) The compound of Example 2 was found in low concentrations to inhibit contractions of the guinea-pig isolated ileum and rat isolated stomach strip caused by histamine and 5-hydroxytryptamine respectively. […] Concomitantly, the depressor effects of histamine were blocked, as were the pressor effects of 5-hydroxytryptamine for over 30 minutes. The pressor effects of 5-hydroxytryptamine in anaesthetised and pithed rats were inhibited by intravenous doses of 0.3-1.0 mg/kg body weight. Slightly higher doses reduced the bradycardia and the depressor response (the Bezold-Jarisch reflex mediated by 5-HT3 receptors) to 5-hydroxytryptamine in anaesthetised rats. The drug inhibited oedema in the rat paw caused by intraplantar 5-hydroxytryptamine. […] In mice it inhibited diarrhoea caused by L-5-hydroxytryptophan. In guinea pigs, intravenous doses of 0.03 mg/kg and above reduced the bronchoconstrictor effects of histamine and 5-hydroxytryptamine.
(§2) In cats, the effects of the ganglion stimulant McNeil -A-343 and histamine were reduced. Following intravenous injection into guinea-pigs, […] reduced histamine and 5-hydroxytryptamine induced broncho-constriction. Concentrations of 1 μg/ml or greater relaxed the isolated rat uterus in vitro.
(§3) The compound of Example 4 when injected into rats at intravenous doses of 0.3 mg/kg or greater reduced the pressor effects of 5-hydroxytryptamine and also the depressor effects of histamine. In cats, the effect of histamine was reduced after these doses also.
Thus doses of 1 mg/kg given intraperitoneally attenuated the facilitation of spinal reflex activity caused by p-chloroamphetamine, and also the facilitation of spinal reflexes induced by fenfluramine in spinal and decerebrate rats. […] The drug in doses of 10 and 20 mg/kg intraperitoneally and in doses of 20 mg/kg by mouth attenuated morphine-induced catalepsy. We conclude therefore that this drug is an orally active drug with central actions, particularly affecting serotonergic mechanisms, but has no effect in vitro (Table 1). […] Thus it was found after intravenous doses of 0.03 mg/kg to reduce histamine and 5-hydroxytryptamine bronchoconstriction in the guinea pig.

[3] = test system: depressor effects of histamine; assay: Depressor effects of histamine in rats; format: in vivo, rat; conditions: Rattus norvegicus, intravenous, read-out: Intravenous dose reducing the depressor effects of histamine
Protocol: as §1, §3

[4] = test system: pressor effects of 5-hydroxytryptamine; assay: Pressor effects of 5-hydroxytryptamine in rats; format: in vivo, rat; conditions: rat, intravenous; read-out: Intravenous dose depressing/reducing the pressor responses to 5-hydroxytryptamine
Protocol: as §1, §2, §3

[5] = test system: isolated guinea pig ileum (KCl-induced contractions); assay: Block of KCl-induced contraction of the isolated guinea-pig ileum; conditions: block of contractions of isolated guinea pig ileum induced by KCl
Protocol: (§4) Compounds according to formula I were tested for their ability to block contractions of the isolated guinea pig ileum induced by KCl, carbachol, or histamine at a concentration of 10^-7 M. Ileum preparations were prepared according to standard methodology. The concentrations shown are the minimum required to show activity.

[6] = test system: arterial blood pressure and heart rate; assay: Arterial blood pressure and heart rate in guinea pigs after intravenous doses; format: in vivo, guinea pig; conditions: intravenous 0.01 mg/kg or greater
[7] = test system: isolated guinea pig ileum (histamine-induced contractions); assay: Block of histamine-induced contraction of the isolated guinea-pig ileum
Protocol: as §1, §4

[8] = test system: depressor effects of histamine; assay: Effects of histamine in cats; format: in vivo, cat; conditions: intravenous
Protocol: as §1, §2, §3

[9] = test system: isolated guinea pig ileum (carbachol-induced contractions); assay: Block of carbachol-induced contraction of the isolated guinea-pig ileum; conditions: block of contractions of isolated guinea pig ileum induced by carbachol
Protocol: as §4

Compound: NC(=S)N1CCN2c3ccccc3Cc3ccccc3C2C1 (centres unmarked) [Example 4, 2-Thiocarboxamido-1,2,3,4,10,14b-hexahydrodibenzo [c,f]pyrazino[1,2-a]azepine]
- Concentration reducing contractions of the isolated rat uterus caused by 5-hydroxytryptamine or high potassium concentrations [1]: ≥ 0.1 µg/mL
- Anti-spasmodic action ([1]; 0.1 μg/ml or greater): anti-spasmodic action
- minimal effective dose [2]: ≥ 0.01 mg/kg
- minimal effective dose [3]: ≥ 0.3 mg/kg
- minimal effective dose [4]: ≥ 0.3 mg/kg
- Effect on KCl [5]: - (no effect)
- Effects on arterial blood pressure and heart rate compared with the compound of Example 2 [6]: smaller effects
- minimal effective concentration ([7]; Cavia porcellus, isolated guinea pig ileum, histamine 10^-7 M, read-out: Effect on Histamine: minimum concentration required to show activity): 0.01 to 0.1 µM
- Effect on Histamine ([7]; block of contractions of isolated guinea pig ileum induced by histamine at 10^-7 M): ++
- Effects of histamine (depressor) in cats [8]: reduced
- Effect on Carbachol [9]: - (no effect)
